Assay results: ChEMBL document CHEMBL3997829, “Discovery of novel substituted octahydropyrrolo[3,4-c]pyrroles as dual orexin receptor antagonists for insomnia treatment” (Bioorg Med Chem Lett, 2017)
≈ marks a conversion by molar mass, not a printed value.

How the values were obtained:
[1] = biological target: T1, Orexin/Hypocretin receptor type 1 (Homo sapiens, UniProt O43613); assay: Antagonist activity at human orexin 1 receptor expressed in HEK293 cells assessed as inhibition of orexin-induced calcium mobilization after 60 mins by FLIPR assay; type: functional, cell-based
T1 sequence (O43613 whole entry): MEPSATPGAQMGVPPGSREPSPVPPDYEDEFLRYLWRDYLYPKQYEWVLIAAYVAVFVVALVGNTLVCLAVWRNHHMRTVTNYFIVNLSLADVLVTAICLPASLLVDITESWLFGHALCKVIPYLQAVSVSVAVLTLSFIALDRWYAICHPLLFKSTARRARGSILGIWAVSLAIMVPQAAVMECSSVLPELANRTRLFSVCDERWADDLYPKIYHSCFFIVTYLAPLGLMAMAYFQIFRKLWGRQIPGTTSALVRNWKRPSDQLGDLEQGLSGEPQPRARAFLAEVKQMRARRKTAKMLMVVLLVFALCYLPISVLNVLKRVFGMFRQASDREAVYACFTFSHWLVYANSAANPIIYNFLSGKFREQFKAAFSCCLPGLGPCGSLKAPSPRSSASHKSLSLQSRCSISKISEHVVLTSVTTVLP

[2] = biological target: T2, Orexin receptor type 2 (Homo sapiens, UniProt O43614); assay: Antagonist activity at human orexin 2 receptor expressed in HEK293 cells assessed as inhibition of orexin-induced calcium mobilization after 60 mins by FLIPR assay; type: functional, cell-based
T2 sequence (O43614 whole entry): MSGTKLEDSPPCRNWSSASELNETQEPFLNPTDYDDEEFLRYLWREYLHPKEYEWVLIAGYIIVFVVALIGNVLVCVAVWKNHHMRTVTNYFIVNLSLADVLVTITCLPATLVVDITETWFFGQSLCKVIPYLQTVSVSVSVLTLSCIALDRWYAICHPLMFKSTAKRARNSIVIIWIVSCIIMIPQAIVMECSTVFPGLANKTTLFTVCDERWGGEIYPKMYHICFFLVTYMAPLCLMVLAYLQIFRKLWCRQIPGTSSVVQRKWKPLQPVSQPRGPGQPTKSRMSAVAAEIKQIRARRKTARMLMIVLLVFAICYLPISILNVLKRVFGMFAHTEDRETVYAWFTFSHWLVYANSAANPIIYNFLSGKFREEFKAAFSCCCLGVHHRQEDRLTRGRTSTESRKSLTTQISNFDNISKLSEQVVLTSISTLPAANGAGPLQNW

[3] = Thermodynamic solubility of the compound in phosphate buffer at pH 7.4 by HPLC method; type: physicochemical; details: read-out: Therm_solubility
[4] = Plasma concentration in Sprague-Dawley rat at 10 mg/kg, po at 0.3 hrs; type: ADME, organism-based
[5] = Plasma concentration in Sprague-Dawley rat at 10 mg/kg, po at 1 hr; type: ADME, organism-based
[6] = Plasma concentration in Sprague-Dawley rat at 10 mg/kg, po at 4 hrs; type: ADME, organism-based
[7] = system: Brain; assay: Drug uptake in Sprague-Dawley rat brain at 10 mg/kg, po at 0.3 hrs; type: ADME, organism-based; details: in vivo
[8] = system: Brain; assay: Drug uptake in Sprague-Dawley rat brain at 10 mg/kg, po at 1 hr; type: ADME, organism-based; details: in vivo
[9] = system: Brain; assay: Drug uptake in Sprague-Dawley rat brain at 10 mg/kg, po at 4 hrs; type: ADME, organism-based; details: in vivo
[10] = Ratio of drug level in brain to plasma in Sprague-Dawley rat at 10 mg/kg, po at 0.5 hrs; type: ADME, organism-based; details: read-out: BPR
[11] = Ratio of drug level in brain to plasma in Sprague-Dawley rat at 10 mg/kg, po at 1 hr; type: ADME, organism-based; details: read-out: BPR
[12] = Ratio of drug level in brain to plasma in Sprague-Dawley rat at 10 mg/kg, po at 4 hrs; type: ADME, organism-based; details: read-out: BPR
[13] = Clearance in Sprague-Dawley rat at 2 mg/kg, iv; type: ADME, organism-based; details: in vivo
[14] = Half life in Sprague-Dawley rat at 2 mg/kg, iv; type: ADME, organism-based; details: in vivo
[15] = AUC in Sprague-Dawley rat at 15 mg/kg, po; type: ADME, organism-based; details: in vivo
[16] = Cmax in Sprague-Dawley rat at 15 mg/kg, po; type: ADME, organism-based; design: dose 15 mg/kg, route oral; details: in vivo
[17] = Tmax in Sprague-Dawley rat at 15 mg/kg, po; type: ADME, organism-based; details: in vivo
[18] = Oral bioavailability in Sprague-Dawley rat at 15 mg/kg; type: ADME, organism-based; details: in vivo
[19] = system: Rattus norvegicus; assay: Sleep promoting activity in Sprague-Dawley rat assessed as decrease in active wake time at 30 mg/kg, po measured over 2 hrs by electroencephalogram method; type: functional
[20] = system: Rattus norvegicus; assay: Sleep promoting activity in Sprague-Dawley rat assessed as decrease in active wake time at 90 mg/kg, po measured over 2 hrs by electroencephalogram method; type: functional
[21] = system: Rattus norvegicus; assay: Sleep promoting activity in Sprague-Dawley rat assessed as effect on rapid eye movement sleep time at 30 mg/kg, po measured over 2 hrs by electroencephalogram method; type: functional
[22] = system: Rattus norvegicus; assay: Sleep promoting activity in Sprague-Dawley rat assessed as effect on rapid eye movement sleep time at 90 mg/kg, po measured over 2 hrs by electroencephalogram method; type: functional
[23] = system: Rattus norvegicus; assay: Sleep promoting activity in Sprague-Dawley rat assessed as increase in slow wave sleep time at 30 mg/kg, po measured over 2 hrs by electroencephalogram method; type: functional
[24] = system: Rattus norvegicus; assay: Sleep promoting activity in Sprague-Dawley rat assessed as increase in slow wave sleep time at 90 mg/kg, po measured over 2 hrs by electroencephalogram method; type: functional
[25] = system: Rattus norvegicus; assay: Sleep promoting activity in po dosed Sprague-Dawley rat assessed as decrease in active wake time measured over 2 hrs by electroencephalogram method; type: functional, organism-based
[26] = system: Rattus norvegicus; assay: Sleep promoting activity in po dosed Sprague-Dawley rat assessed as increase in slow wave sleep time measured over 2 hrs by electroencephalogram method; type: functional, organism-based

## Cc1ccc(-n2nccn2)c(C(=O)N2C[C@@H]3CN(c4nc5ccccc5o4)C[C@@H]3C2)c1
[1]
  IC50: 303 nM
[2]
  IC50: 178 nM
[3]
  solubility thermodynamic: 41 µM (≈ 17 µg/mL)
[4]
  concentration at 0.3 h: 8.79 µM
[5]
  concentration at 1 h: 3.47 µM
[6]
  concentration at 4 h: 0.341 µM
[7]
  Drug uptake: 1134 nmol/kg
[8]
  Drug uptake: 429 nmol/kg
[9]
  Drug uptake: 22 nmol/kg
[10]
  Kp at 0.5 h: 0.13
[11]
  Kp at 1 h: 0.12
[12]
  Kp at 4 h: 0.06
[13]
  clearance: 10 mL/min/kg
[14]
  half-life: 1.9 h
[15]
  AUC: 20.3 µM·h
[16]
  Cmax: 10.6 µM
[17]
  Tmax: 0.25 h
[18]
  bioavailability: 23%
[19]
  Time: 25.7 min
[20]
  Time: 41.1 min
[21]
  Time: -0.1 min
[22]
  Time: 4.3 min
[23]
  Time: 25.9 min
[24]
  Time: 36.9 min
[25]
  Activity: Dose-dependent effect
[26]
  Activity: Dose-dependent effect
